Measurements reported in PubChem BioAssay (NCI).
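Results reflect a 48-hour exposure of cells in 96-well plates to compound at five concentrations. Here, GI50 denotes the concentration required for 50% inhibition of growth. TGI: concentration producing complete growth inhibition.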

Columns and labels:
Experiment in all cases: growth of human tumour cells (NCI), 48 h
[1] = test system: 786-0 renal
[2] = test system: A498 renal
[3] = test system: A549 NSCLC
[4] = test system: ACHN renal
[5] = test system: BT-549 breast
[6] = test system: CAKI-1 renal
[7] = test system: CCRF-CEM leukemia
[8] = test system: COLO 205 colon
[9] = test system: DU-145 prostate
[10] = test system: EKVX NSCLC
[11] = test system: HCC-2998 colon
[12] = test system: HCT-116 colon
[13] = test system: HCT-15 colon
[14] = test system: HL-60(TB) leukemia
[15] = test system: HOP-62 NSCLC
[16] = test system: HOP-92 NSCLC
[17] = test system: HS 578T breast
[18] = test system: HT29 colon
[19] = test system: IGROV1 ovarian
[20] = test system: K-562 leukemia
[21] = test system: KM12 colon
[22] = test system: LOX IMVI melanoma
[23] = test system: M14 melanoma
[24] = test system: MALME-3M melanoma
[25] = test system: MCF7 breast
[26] = test system: MDA-MB-231 breast
[27] = test system: MDA-MB-435
[28] = test system: MOLT-4 leukemia
[29] = test system: NCI-H226 lung
[30] = test system: NCI-H23 lung
[31] = test system: NCI-H460 lung
[32] = test system: NCI-H522 lung
[33] = test system: NCI/ADR-RES ovarian
[34] = test system: OVCAR-3 ovarian
[35] = test system: OVCAR-4 ovarian
[36] = test system: OVCAR-5 ovarian
[37] = test system: OVCAR-8 ovarian
[38] = test system: PC-3 prostate
[39] = test system: RPMI-8226 leukemia
[40] = test system: RXF 393 renal
[41] = test system: SF-268 CNS
[42] = test system: SF-295 CNS
[43] = test system: SF-539 CNS
[44] = test system: SK-MEL-2 melanoma
[45] = test system: SK-MEL-28 melanoma
[46] = test system: SK-MEL-5 melanoma
[47] = test system: SK-OV-3 ovarian
[48] = test system: SN12C renal
[49] = test system: SNB-19 CNS
[50] = test system: SNB-75 CNS
[51] = test system: SR leukemia
[52] = test system: SW-620 colon
[53] = test system: T-47D breast
[54] = test system: TK-10 renal
[55] = test system: U251 CNS
[56] = test system: UACC-257 melanoma
[57] = test system: UACC-62 melanoma
[58] = test system: UO-31 renal

`C#Cc1nc(C2=C(C)C(O)/C(=N/O)C2)cs1` (stereo unspecified) showed a GI50 [1] of 3.84 µM, a TGI [1] of 14 µM and a GI50 [2] of 24.1 µM. The TGI [2] was 50.3 µM, the GI50 [3] was 35.3 µM and the TGI [3] was over 100 µM. For the same compound, the GI50 [4] was 3.61 µM, the TGI [4] was over 100 µM and the GI50 [5] was 19.8 µM. The TGI [5] was 75.5 µM, the GI50 [6] was 48.3 µM and the TGI [6] was over 100 µM. The GI50 [7] was 2.21 µM, the TGI [7] was 5.3 µM and the GI50 [8] was over 100 µM. For the same compound, the TGI [8] was over 100 µM, the GI50 [9] was 49.2 µM and the TGI [9] was over 100 µM. For the same compound, the GI50 [10] was over 100 µM, the TGI [10] was over 100 µM and the GI50 [11] was over 100 µM. It also gave a TGI [11] of over 100 µM, a GI50 [12] of 42.2 µM and a TGI [12] of over 100 µM. For the same compound, the GI50 [13] was 49 µM, the TGI [13] was over 100 µM and the GI50 [14] was 11.9 µM. It also gave a TGI [14] of 29 µM, a GI50 [15] of 94.9 µM and a TGI [15] of over 100 µM. For the same compound, the GI50 [16] was 18.1 µM, the TGI [16] was 34.1 µM and the GI50 [17] was over 100 µM. It also gave a TGI [17] of over 100 µM, a GI50 [18] of 25.7 µM and a TGI [18] of 68.1 µM. The GI50 [19] was 2.97 µM, the TGI [19] was 12.1 µM and the GI50 [20] was 36.7 µM. For the same compound, the TGI [20] was over 100 µM, the GI50 [21] was over 100 µM and the TGI [21] was over 100 µM. The GI50 [22] was 1.52 µM, the TGI [22] was 2.95 µM and the GI50 [23] was over 100 µM. For the same compound, the TGI [23] was over 100 µM, the GI50 [24] was 18.4 µM and the TGI [24] was 49.6 µM. For the same compound, the GI50 [25] was 39 µM, the TGI [25] was over 100 µM and the GI50 [26] was 60.1 µM. The TGI [26] was over 100 µM, the GI50 [27] was over 100 µM and the TGI [27] was over 100 µM. The GI50 [28] was 15.1 µM, the TGI [28] was 40.9 µM and the GI50 [29] was over 100 µM. For the same compound, the TGI [29] was over 100 µM, the GI50 [30] was 7.4 µM and the TGI [30] was over 100 µM. The GI50 [31] was over 100 µM, the TGI [31] was over 100 µM and the GI50 [32] was 14.1 µM. The TGI [32] was 29.1 µM, the GI50 [33] was 81.5 µM and the TGI [33] was over 100 µM. It also gave a GI50 [34] of over 100 µM, a TGI [34] of over 100 µM and a GI50 [35] of 57.2 µM. The TGI [35] was over 100 µM, the GI50 [36] was 63.6 µM and the TGI [36] was over 100 µM. For the same compound, the GI50 [37] was 55.5 µM, the TGI [37] was over 100 µM and the GI50 [38] was 39.1 µM. For the same compound, the TGI [38] was over 100 µM, the GI50 [39] was 5.19 µM and the TGI [39] was 21.8 µM. It also gave a GI50 [40] of 19.4 µM, a TGI [40] of 62.6 µM and a GI50 [41] of 40.7 µM. For the same compound, the TGI [41] was over 100 µM, the GI50 [42] was 12.5 µM and the TGI [42] was 28.5 µM. For the same compound, the GI50 [43] was 11.5 µM, the TGI [43] was 23.6 µM and the GI50 [44] was over 100 µM. For the same compound, the TGI [44] was over 100 µM, the GI50 [45] was 87.8 µM and the TGI [45] was over 100 µM. For the same compound, the GI50 [46] was 54.6 µM, the TGI [46] was over 100 µM and the GI50 [47] was 18.8 µM. The TGI [47] was 39.3 µM, the GI50 [48] was 35 µM and the TGI [48] was over 100 µM. It also gave a GI50 [49] of over 100 µM, a TGI [49] of over 100 µM and a GI50 [50] of over 100 µM. The TGI [50] was over 100 µM, the GI50 [51] was 1.91 µM and the TGI [51] was 5.31 µM. For the same compound, the GI50 [52] was 79.3 µM, the TGI [52] was over 100 µM and the GI50 [53] was 66.8 µM. For the same compound, the TGI [53] was over 100 µM, the GI50 [54] was over 100 µM and the TGI [54] was over 100 µM. For the same compound, the GI50 [55] was 79.5 µM, the TGI [55] was over 100 µM and the GI50 [56] was 57.4 µM. The TGI [56] was over 100 µM, the GI50 [57] was over 100 µM and the TGI [57] was over 100 µM. For the same compound, the GI50 [58] was 1.61 µM and the TGI [58] was 2.98 µM.
